Reference: patent US8653275B2, “Bis-quaternary ammonium cyclophane compounds that interact with neuronal nicotinic acetylcholine receptors” (University of Kentucky Research Foundation, priority 2006, dated 2014)

Assays:
[1] = system: nicotine-evoked [3H]DA release, rat striatal slices; experiment: Inhibition of nicotine-evoked [3H]dopamine release from superfused rat striatal slices; assay type: cell-based; conditions: 100 nM analog superfused 60 min before nicotine (10 μM)
Procedure: Rat striatal slices (500 μm thickness, 6-8 mg wet weight) were incubated for 30 minutes in Krebs buffer (118 mM NaCl, 4.7 mM KCl, 1.2 mM MgCl2, 1.0 mM NaH2PO4, 1.3 mM CaCl2, 11.1 mM glucose, 25 mM NaHCO3, 0.11 mM L-ascorbic acid, and 0.004 mM disodium EDTA; pH 7.4, and saturated with 95% O2/5% CO2) in a metabolic shaker at 34° C. Slices were rinsed with 15 mL of fresh buffer and incubated for an additional 30 minutes in fresh buffer containing 0.1 μM [^3H]dopamine (DA; 6 slices/3 mL). Subsequently, slices were rinsed with 15 mL of fresh buffer and transferred to a glass superfusion chamber. Slices were superfused (1.0 mL/min) for 60 minutes with Krebs buffer containing nomifensine (10 μM) and pargyline (10 μM) and maintained at 34° C., pH 7.4, with continual aeration (95% O2/5% CO2). Two five minute samples (5 mL each) were collected to determine basal outflow of [^3H]DA. The bis-quaternary ammonium cyclophane analogs were added to the superfusion buffer after the collection of the second sample and remained in the buffer until 12 consecutive five minute samples were collected. […] At the end of the experiment, each slice was solubilized and the [^3H] content of the tissue determined.
Radioactivity in the superfusate and tissue samples was determined by liquid scintillation spectroscopy. Fractional release for tritium collected in each sample was divided by the total tritium present in the tissue at the time of sample collection and was expressed as a percentage of total tritium. Basal [^3H]outflow was calculated from the average of the tritium collected in the two five minute samples just before addition of the quaternary ammonium analog. […] [^3H]Overflow was calculated by subtracting the [^3H]outflow during an equivalent period of prestimulation from the values in samples collected during and after drug exposure. […]
The bis-quaternary ammonium cyclophane analogs were also evaluated for their ability to inhibit nicotine evoked [^3H]DA release. […] Antagonist activity was evaluated by comparing the nicotine evoked [^3H]overflow in the absence and presence of the analogs. […]

[2] = molecular target: T1, Rat striatal nicotinic receptors ([3H]nicotine binding) (Rattus norvegicus, UniProt P09483+P12390); experiment: Inhibition of [3H]nicotine binding; conditions: 3 nM [3H]nicotine; for Inhibition of [3H]Nicotine binding: % inhibition at 100 nM analog, nonspecific binding with 10 μM cytisine
T1 construct: Whole brain, excluding cortex and cerebellum, was homogenized; from tissue; host or cells: rat brain membranes (whole brain excluding cortex and cerebellum)
T1 sequence (P09483 31-630): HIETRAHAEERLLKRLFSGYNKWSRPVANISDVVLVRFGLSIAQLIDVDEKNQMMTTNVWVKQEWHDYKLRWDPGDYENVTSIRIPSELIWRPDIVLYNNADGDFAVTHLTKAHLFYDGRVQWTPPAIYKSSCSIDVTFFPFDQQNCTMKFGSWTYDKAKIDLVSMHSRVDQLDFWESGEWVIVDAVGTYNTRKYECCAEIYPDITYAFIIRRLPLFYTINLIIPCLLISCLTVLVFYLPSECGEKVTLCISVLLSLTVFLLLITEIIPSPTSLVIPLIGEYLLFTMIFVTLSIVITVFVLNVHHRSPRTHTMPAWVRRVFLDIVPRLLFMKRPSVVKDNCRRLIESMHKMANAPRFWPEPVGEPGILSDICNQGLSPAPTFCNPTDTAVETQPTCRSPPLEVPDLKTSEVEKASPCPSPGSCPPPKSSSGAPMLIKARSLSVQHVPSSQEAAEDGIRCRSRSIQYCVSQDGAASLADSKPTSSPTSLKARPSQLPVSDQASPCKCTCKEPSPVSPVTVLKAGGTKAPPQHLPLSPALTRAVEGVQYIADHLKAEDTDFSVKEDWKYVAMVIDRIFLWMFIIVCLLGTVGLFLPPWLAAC
T1 sequence (P12390 25-500): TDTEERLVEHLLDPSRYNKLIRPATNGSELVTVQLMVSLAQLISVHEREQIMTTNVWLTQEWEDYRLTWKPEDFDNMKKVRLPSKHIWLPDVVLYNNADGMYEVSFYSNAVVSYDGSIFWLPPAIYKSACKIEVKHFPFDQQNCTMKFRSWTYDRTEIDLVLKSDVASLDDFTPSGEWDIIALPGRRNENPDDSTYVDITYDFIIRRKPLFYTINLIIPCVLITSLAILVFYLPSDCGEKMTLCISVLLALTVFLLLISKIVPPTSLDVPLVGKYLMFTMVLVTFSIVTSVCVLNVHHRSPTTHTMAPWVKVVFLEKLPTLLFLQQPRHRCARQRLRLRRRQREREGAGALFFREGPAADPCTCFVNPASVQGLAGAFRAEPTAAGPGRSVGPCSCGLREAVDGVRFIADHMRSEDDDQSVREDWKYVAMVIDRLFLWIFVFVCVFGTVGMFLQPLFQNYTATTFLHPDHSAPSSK
Procedure: (§1) Whole brain, excluding cortex and cerebellum, was homogenized in 20 vol of ice-cold buffer, containing (in mM): 2 HEPES, 11.8 NaCl, 0.48 KCl, 0.25 CaCl2 and 0.12 MgSO4, pH 7.5. Homogenate was centrifuged (25,000 g, 15 min, 4° C.). Pellets were resuspended in 20 vol buffer and incubated at 37° C., for 10 min, cooled to 4° C. and centrifuged (25,000 g, 15 min, 4° C.). Pellets were resuspended and centrifuged using the same conditions. Final pellets were stored in assay buffer, containing (in mM): 20 HEPES, 118 NaCl, 4.8 KCl, 2.5 CaCl2, and 1.2 MgSO4, pH 7.5 at −70° C. Upon use, final pellets were resuspended in ˜20 vol assay buffer. Samples (250 μl) contained 100-140 μg of membrane protein, 3 nM [^3H]nicotine or 3 nM [^3H]methyllycaconitine (MLA), and bis-quaternary ammonium cyclophane analog (100 nM) in assay buffer containing 50 mM Tris. Control was in the absence of analog. In [^3H]nicotine and [^3H]methyllycaconitine binding assays, nonspecific binding was determined in the presence of 10 μM cytisine and 10 μM nicotine, respectively. Incubations proceeded for 60 min at room temperature using 96-well plates and were terminated by harvesting on Unifilter-96 GF/B filter plates presoaked in 0.5% polyethylenimine, using a Packard FilterMate harvester. After washing 5 times with 350 μl ice-cold assay buffer, filter plates were dried (60 min, 4° C.), bottom-sealed, and filled with Packard's MicroScint 20 cocktail (40 μl/well). After 60 min, filter plates were top-sealed, and radioactivity determined using a Packard TopCount. Protein concentrations were determined using the Bradford dye-binding procedure bovine serum albumin as the standard.

[3] = molecular target: T2, Rat striatal nicotinic receptors ([3H]MLA binding) (Rattus norvegicus, UniProt Q05941); experiment: Inhibition of [3H]methyllycaconitine (MLA) binding; conditions: for Inhibition of [3H]MLA Binding: % inhibition at 100 nM analog, 2.5 nM [3H]MLA, nonspecific binding with 1 μM nicotine (footnote b)
T2 construct: Whole brain, excluding cortex and cerebellum, was homogenized; from tissue; host or cells: rat brain membranes (whole brain excluding cortex and cerebellum)
T2 sequence (Q05941 23-502): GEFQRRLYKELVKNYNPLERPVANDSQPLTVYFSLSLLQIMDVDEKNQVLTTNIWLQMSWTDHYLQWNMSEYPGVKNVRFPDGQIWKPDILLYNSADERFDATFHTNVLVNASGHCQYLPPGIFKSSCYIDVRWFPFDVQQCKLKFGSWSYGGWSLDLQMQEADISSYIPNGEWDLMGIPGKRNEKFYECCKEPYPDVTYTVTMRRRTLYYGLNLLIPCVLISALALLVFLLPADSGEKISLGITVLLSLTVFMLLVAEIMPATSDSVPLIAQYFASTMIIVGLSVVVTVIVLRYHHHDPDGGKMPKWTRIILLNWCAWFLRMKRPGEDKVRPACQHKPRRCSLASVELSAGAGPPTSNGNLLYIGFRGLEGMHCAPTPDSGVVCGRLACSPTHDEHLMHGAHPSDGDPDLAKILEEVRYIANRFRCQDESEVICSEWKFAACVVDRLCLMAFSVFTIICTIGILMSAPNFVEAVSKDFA
Procedure: as §1, with “Samples (250 μl) contained 100-140 μg of membrane protein, 3 nM [^3H]nicotine or 3 nM [^3H]methyllycaconitine (MLA), and bis-quaternary ammonium cyclophane analog (100 nM) in assay buffer containing 50 mM Tris.” left out, “In [^3H]nicotine and [^3H]methyllycaconitine binding assays, nonspecific binding was determined in the presence of 10 μM cytisine and 10 μM nicotine, respectively.” left out

[4] = molecular target: BBB choline transporter; experiment: Affinity for the BBB choline transporter; assay type: binding
[5] = full concentration effect evaluated

Row | SMILES | Inhibition of Nicotine-evoked [3H]DA release [1] | Inhibition of [3H]Nicotine binding [2] | Inhibition of [3H]MLA Binding [3] | Ki [4] | Ki [2, 5] | Ki [3, 5]
1 | c1cc2c[n+](c1)CCCCCCCCCCCCc1ccc[n+](c1)CCCCCCCCCCCC2 [N,3′-(1,12-dodecanediyl)-3,N′-(1,12-dodecanediyl)-bis-pyridinium dibromide] | 20% | 2% | 0% |  |  | 
2 | C1#Cc2ccc[n+](c2)CCCCCCCCCCC[n+]2cccc(c2)C#CCCCCCC1.[Br-].[Br-] [N,N′-(1,11-undecanediyl)-3,3′-(1,9-decanediyn-1,10-diyl)-bis-pyridinium dibromide] |  | 11% | 3% | 15.2 µM |  | 
3 | C1#Cc2ccc[n+](c2)CCCCCCCCC[n+]2cccc(c2)C#CCCCCCC1.[Br-].[Br-] [N,N′-(1,9-nonanediyl)-3,3′-(1,9-decanediyn-1,10-diyl)-bis-pyridinium dibromide] |  | 0% | 3% | 1.4 µM |  | 
4 | c1cc2c[n+](c1)CCCC[n+]1cccc(c1)CCCCCCCCCCCC2 [N,N′-(1,4-butanediyl)-3,3′-(1,12-dodecanediyl)-bis-pyridinium diiodide] | 23% | 14 ± 2.6% | 3.0 ± 3.0% |  |  | 
5 | C1#Cc2ccc[n+](c2)CCCCCCCCCC[n+]2cccc(c2)C#CCCCCCC1 [N,N′-(1,10-decanediyl)-3,3′-(1,9-decanediyn-1,10-diyl)-bis-pyridinium diiodide] | 19% |  |  | 0.8 µM | 0.55 µM | 4.64 µM
6 | C1#Cc2ccc[n+](c2)CCCCCC[n+]2cccc(c2)C#CCCCCCC1.[I-].[I-] [N,N′-(1,6-hexanediyl)-3,3′-(1,9-decanediyn-1,10-diyl)-bis-pyridinium diiodide] |  | 7% | 2% | 33.6 µM |  | 
7 | C1#Cc2ccc[n+](c2)CCCCCCCC[n+]2cccc(c2)C#CCCCCCC1.[I-].[I-] [N,N′-(1,8-octanediyl)-3,3′-(1,9-decanediyn-1,10-diyl)-bis-pyridinium diiodide] |  | 9% | 0% |  |  | 
